This is an account of results in US10696692B2, “Amido-benzyl sulfone and sulfoxide derivates” (Forma TM, LLC, priority 2012, dated 2020).

Where two headings read alike, the source gives them in different places.

The target of assay [1] is NAMPT (Homo sapiens (Human), UniProt P43490). The assay can be described thus: Assay 1: Biochemical Inhibition Assay (NAMPT enzymatic reaction, NMN quantified by mass spectrometry).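 Further: recombinant His-tagged human NAMPT preincubated with compound 15 min, then reacted 30 min at rt with 1 µM NAM, 100 µM PRPP, 2.5 mM ATP, NMN product read by RapidFire MS, normalized to L-Cystathionine internal standard.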 The conditions noted are these: read-out: Biochemical (IC50).
Assay [2] has as its system A2780 cells. Put plainly: Assay 2: In-Vitro Cell Proliferation Assay (A2780 cells, SRB readout, 72 hours).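 Further: viable cells counted via sulforhodamine B staining, absorbance at 570 nm, after 72 h exposure at 37 °C, DMSO 0.1% as control, media-only background subtracted.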 The class given is cell-based. The settings on record: A2780 cells, 72 hours, SRB, read-out: Cell Proliferation (IC50).

Sequence of NAMPT (P43490 whole entry): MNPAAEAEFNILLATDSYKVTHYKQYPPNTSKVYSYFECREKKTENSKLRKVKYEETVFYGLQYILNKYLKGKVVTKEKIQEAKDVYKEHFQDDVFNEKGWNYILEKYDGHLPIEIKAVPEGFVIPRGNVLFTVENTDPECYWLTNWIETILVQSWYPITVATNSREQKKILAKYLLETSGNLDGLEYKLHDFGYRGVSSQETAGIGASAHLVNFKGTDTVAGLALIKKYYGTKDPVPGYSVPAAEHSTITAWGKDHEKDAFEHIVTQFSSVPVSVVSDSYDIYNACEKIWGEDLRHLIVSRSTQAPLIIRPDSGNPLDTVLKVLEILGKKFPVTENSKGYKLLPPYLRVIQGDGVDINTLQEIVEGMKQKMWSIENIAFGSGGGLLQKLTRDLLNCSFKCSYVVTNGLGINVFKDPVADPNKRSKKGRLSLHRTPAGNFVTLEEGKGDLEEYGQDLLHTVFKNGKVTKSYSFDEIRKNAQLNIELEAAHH

Consider `O=C(NCc1ccc(S(=O)(=O)N2C[C@@H]3C[C@H]2CC3(F)F)cc1)c1ccc2nccn2c1` (racemic) [Example 141, cis-Imidazo[1,2-a]pyridine-6-carboxylic acid 4-(5,5-difluoro-2-aza-bicyclo[2.2.1]heptane-2-sulfonyl)-benzylamide], for which the IC50 in assay [1] was 14.8 nM; in assay [2] (Homo sapiens, A2780, 72 h), 9.5 nM.
For the compound `CC(C)(C)OC(=O)N1CCCC2(C1)CN(S(=O)(=O)c1ccc(CNC(=O)c3ccc4nccn4c3)cc1)C2` [Example 238, tert-butyl 2-[4-[(imidazo[1,2-a]pyridine-6-carbonylamino)methyl]phenyl] sulfonyl-2,8-diazaspiro[3.5]nonane-8-carboxylate], the IC50 in assay [1] is 11.8 nM; in assay [2] (Homo sapiens, A2780, 72 h), 1.83 nM.
On to `CC(=O)N1CCC(S(=O)(=O)c2ccc(CNC(=O)c3cc4ccncc4o3)cc2)CC1` [Example 207, N-[[4-[(1-acetyl-4-piperidyl)sulfonyl]phenyl]methyl]furo[2,3-c]pyridine-2-carboxamide], for which the IC50 in assay [1] amounted to 29.3 nM; in assay [2] (Homo sapiens, A2780, 72 h), 25 nM.
`O=C(NCc1ccc(S(=O)(=O)C2CCN(CC(F)(F)F)CC2)cc1)c1cnc2nccn2c1` [Example 64, Imidazo[1,2-a]pyrimidine-6-carboxylic acid 4-[1-(2,2,2-trifluoro-ethyl)-piperidine-4-sulfonyl]-benzylamide]: the IC50 in assay [1] came to 3.7 nM; in assay [2] it was 8.8 nM.
Regarding `CC(C)(C)OC(=O)N1CCC2(CCN(S(=O)(=O)c3ccc(CNC(=O)c4ccc5nccn5c4)cc3)CC2)C1` [Example 103, 8-(4-{[(Imidazo[1,2-a]pyridine-6-carbonyl)-amino]-methyl}-benzenesulfonyl)-2,8-diaza-spiro[4.5]decane-2-carboxylic acid tert-butyl ester], the IC50 is 29.5 nM in assay [1] and 39.4 nM in assay [2] (Homo sapiens, A2780, 72 h).
On to `O=C(NCc1ccc(S(=O)(=O)N2C[C@@H]3C[C@H]2CO3)cc1)c1cnc2[nH]ncc2c1` (racemic) [Example 172, cis-1H-Pyrazolo[3,4-b]pyridine-5-carboxylic acid 4-(2-oxa-5-aza-bicyclo[2.2.1]heptane-5-sulfonyl)-benzylamide], for which the IC50 in assay [1] was 211 nM; in assay [2] (Homo sapiens, A2780, 72 h), 354 nM.
Turning to `O=C(NCc1ccc(S(=O)(=O)C2CCN(C3CCOCC3)CC2)cc1)c1ccc2nccn2c1` [Example 214, N-[[4-[(1-tetrahydropyran-4-yl-4-piperidyl)sulfonyl]phenyl]methyl]imidazo[1,2-a] pyridine-6-carboxamide], the IC50 in assay [1] turned out to be 13.6 nM; in assay [2] (Homo sapiens, A2780, 72 h), 4.73 nM.
As to `O=C(NCc1ccc(S(=O)(=O)C2CCN(C3COC3)CC2)cc1)c1cc2ccncc2s1` [Example 120, Thieno[2,3-c]pyridine-2-carboxylic acid 4-(1-oxetan-3-yl-piperidine-4-sulfonyl)-benzylamide], the IC50 was determined as 4.3 nM in assay [1] and 1.5 nM in assay [2] (Homo sapiens, A2780, 72 h).
On to `CC(C)(C)OC(=O)NC1CCN(S(=O)(=O)c2ccc(CNC(=O)c3ccc4nccn4c3)cc2)CC1` [Example 55, [1-(4-{[(lmodazo[1,2-a]pyridine-6-carbonyl)-amino]-methyl}-benzenesulfonyl)-piperidin-4-yl]-carbamic acid tert-butyl ester], for which the IC50 is 7.7 nM in assay [1] and 4.3 nM in assay [2] (Homo sapiens, A2780, 72 h).
On to `O=C(NCc1ccc(S(=O)(=O)N2CCC3OCCC3C2)cc1)c1ccc2nccn2c1` (stereo not drawn) [Example 146, Imidazo[1,2-a]pyridine-6-carboxylic acid 4-(hexahydro-furo[3,2-c]pyridine-5-sulfonyl)-benzylamide], for which the IC50 amounted to 12.7 nM in assay [1] and 3.1 nM in assay [2] (Homo sapiens, A2780, 72 h).
With `O=C(NCc1ccc(S(=O)(=O)N2CCC3(CCNC3)CC2)cc1)c1ccc2nccn2c1` [Example 152, Imidazo[1,2-a]pyridine-6-carboxylic acid 4-(2,8-diaza-spiro[4.5]decane-8-sulfonyl)-benzylamide], the IC50 in assay [1] is 32.1 nM; in assay [2] (Homo sapiens, A2780, 72 h), 30.5 nM.
The corresponding values for `O=C(NCc1ccc(S(=O)(=O)N2CCCCC2)cc1)c1cc2ccncc2o1` [Example 5, Furo[2,3-c]pyridine-2-carboxylic acid 4-(piperidine-1-sulfonyl)-benzylamide] are 9.4 nM and 29.2 nM.
`C[C@@H]1CN(S(=O)(=O)c2ccc(CNC(=O)c3ccc4nccn4c3)cc2)C[C@H](C)N1` [Example 60, cis-Imidazo[1,2-a]pyridine-6-carboxylic acid 4-((3R,5S)-3,5-dimethyl-piperazine-1-sulfonyl)-benzylamide]: the IC50 in assay [1] is 29.4 nM; in assay [2] (Homo sapiens, A2780, 72 h), 15.2 nM.
As for `O=C(NCc1ccc([S+]([O-])C2CCN(C3CCOCC3)CC2)cc1)N1Cc2ccncc2C1` (stereo not drawn) [Example 365, N-[[4-[(1-tetrahydropyran-4-yl-4-piperidyl)sulfinyl]phenyl]methyl]-1,3-dihydropyrrolo[3,4-c]pyridine-2-carboxamide], the IC50 in assay [1] was determined as 2.02 nM; in assay [2] (Homo sapiens, A2780, 72 h) it was 20 nM.
On the same counts, the results for `CN1CCC([S+]([O-])c2ccc(CNC(=O)c3ccc4nccn4c3)cc2)CC1` (stereo not drawn) [Example 371, N-[[4-[(1-methyl-4-piperidyl)sulfinyl]phenyl]methyl]imidazo[1,2-a]pyridine-6-carboxamide] are 38 nM and 12.4 nM.
Take `O=C(NCc1ccc(S(=O)(=O)C2CCCOC2)cc1)c1ccc2nccn2c1` (stereo not drawn) [Example 276, N-[(4-tetrahydropyran-3-ylsulfonylphenyl)methyl] imidazo[1,2-a]pyridine-6-carboxamide]: the IC50 in assay [1] worked out at 32.9 nM; in assay [2] (Homo sapiens, A2780, 72 h) it was 19.9 nM.
On to `CC(C)(C)OC(=O)N1CC2OCCN(S(=O)(=O)c3ccc(CNC(=O)c4ccc5nccn5c4)cc3)C2C1` (racemic) [Example 134, cis-4-(4-{([(Imidazo[1,2-a]pyridine-6-carbonyl)-amino]-methyl}-benzenesulfonyl)-hexahydro-pyrrolo[3,4-b][1,4]oxazine-6-carboxylic acid tert-butyl ester], for which the results for the IC50 in assay [1] and in assay [2] were 166 nM and 49.5 nM, respectively.
With `CC(C)N1CCC([S+]([O-])c2ccc(CNC(=O)c3ccc4nccn4c3)cc2)CC1` (stereo not drawn) [Example 362, N-[[4-[(1-isopropyl-4-piperidyl)sulfinyl]phenyl]methyl]imidazo[1,2-a]pyridine-6-carboxamide], the IC50 in assay [1] was 35 nM; in assay [2] (Homo sapiens, A2780, 72 h), 22.1 nM.
With `O=C(NCc1ccc(S(=O)(=O)C2CCN(CC(F)(F)F)CC2)cc1)c1ccc2nccn2c1` [Example 210, N-[[4-[[1-(2,2,2-trifluoroethyl)-4-piperidyl)sulfonyl]phenyl]methyl]imidazo[1,2-a]pyridine-6-carboxamide], the IC50 came out at 17.7 nM in assay [1] and 3.47 nM in assay [2] (Homo sapiens, A2780, 72 h).
Take `CN1CCN(C2CCN(S(=O)(=O)c3ccc(CNC(=O)c4ccc5nccn5c4)cc3)CC2)CC1` [Example 110, Imidazo[1,2-a]pyridine-6-carboxylic acid 4-[4-(4-methyl-piperazin-1-yl)-piperidine-1-sulfonyl]-benzylamide]: the IC50 in assay [1] was determined as 3.1 nM; in assay [2] (Homo sapiens, A2780, 72 h), 3.3 nM.
The corresponding values for `O=C(NCc1ccc(S(=O)(=O)[C@@H]2CCOC2)cc1)c1cc2ccncc2o1` [Example 232, N-[[4-[(3R)-tetrahydrofuran-3-yl]sulfonylphenyl]methyl]furo [2,3-c]pyridine-2-carboxamide] are 175 nM and 445 nM.
